Source: patent US20190314285A1, “DOSAGE FORMS COMPRISING ABIRATERONE ACETATE” (Janssen Pharmaceutica NV, priority 2018, published 2019)
One block for each compound: values may come before it.

How the values were obtained:
17,20-lyase (CYP17A1) = molecular target: T1, 17,20-lyase (CYP17A1) (Homo sapiens, UniProt P05093); details: cited from earlier work
T1 sequence (P05093 1-508): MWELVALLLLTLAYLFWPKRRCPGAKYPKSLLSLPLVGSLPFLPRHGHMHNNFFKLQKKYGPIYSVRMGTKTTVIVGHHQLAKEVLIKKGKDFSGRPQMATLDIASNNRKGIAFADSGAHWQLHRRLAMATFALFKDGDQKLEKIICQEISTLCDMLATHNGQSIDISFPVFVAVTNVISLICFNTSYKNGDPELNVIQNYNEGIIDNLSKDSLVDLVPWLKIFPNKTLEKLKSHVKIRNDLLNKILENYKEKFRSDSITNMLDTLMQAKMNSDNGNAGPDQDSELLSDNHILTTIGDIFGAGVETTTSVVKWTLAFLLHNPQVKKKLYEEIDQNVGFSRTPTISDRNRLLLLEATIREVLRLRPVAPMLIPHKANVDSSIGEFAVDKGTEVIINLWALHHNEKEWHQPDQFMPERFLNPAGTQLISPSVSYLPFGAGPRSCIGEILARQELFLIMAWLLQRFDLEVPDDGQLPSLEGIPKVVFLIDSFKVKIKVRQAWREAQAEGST

[1] = Plasma concentrations of abiraterone acetate in previous studies; type: in vivo
[2] = system: circulating androgens (testosterone, DHT, DHEA, androstenedione); details: added to castration, relative to castration alone; cited from earlier work
mCRPC = details: cited from earlier work

SMILES: C[C@]12CC[C@H](O)CC1=CC[C@@H]1[C@@H]2CC[C@]2(C)C(c3cccnc3)=CC[C@@H]12 [Abiraterone]
IC50 (17,20-lyase (CYP17A1)): 0.015 µM

plasma concentrations of abiraterone acetate [1]: below the lower limit of quantitation
SMILES: CC(=O)O[C@H]1CC[C@@]2(C)C(=CC[C@@H]3[C@@H]2CC[C@]2(C)C(c4cccnc4)=CC[C@@H]32)C1 [abiraterone acetate, Abiraterone acetate]
reduction of DHEA levels [2]: 97-98% | reduction of DHT levels [2]: 85% | reduction of androstenedione levels [2]: 77-78%

SMILES: O=C(c1cc(Cc2n[nH]c(=O)c3ccccc23)ccc1F)N1CCN(C(=O)C2CC2)CC1 [olaparib]
biomarker-negative patient tumors with a response (mCRPC; 2 of 33): 6% | responders who were biomarker-positive for anomalies in DNA-repair genes (mCRPC; 14 of the 16 patients with a response): 88% | patients with ATM aberrations who had a response (mCRPC; human, in vivo): 4 of 5 | patients with BRCA-2 loss who had a response (mCRPC; human, in vivo): all 7 patients
